Reference: patent publication US6946457B2, “Methods of treating sickle cell disease” (The Trustees of Columbia University in the City of New York, priority 2001, dated 2005)

Assays:
[1] = biological target: T1, hemoglobin S (Homo sapiens, UniProt P68871+P69905, E7V); test: Inhibition of aggregation of deoxygenated hemoglobin S (turbidity at 700 nm); type: biochemical; conditions: low oxygen tension, 1.8M phosphate buffer, 30° C.
T1 construct: from tissue; host or cells: blood / erythrocytes of a subject with sickle cell disease (inferred from the general method)
Procedure: Inhibition of Aggregation of Hemoglobin S
To a 10 mm cuvette (Type 9GL14S, Septum seal, Uvonic Instruments, Plainview, N.Y. 11803) containing 0.9 ml of 1.8M phosphate buffer, pH 9.4, was added 5 mg of Na2S203. The cuvette was capped and two #25 hypodermic needles were inserted through the soft plastic seals. Nitrogen was passed over the surface of the solution for 15 minutes to drive off oxygen; the cuvette was then gently shaken to dissolve the Na2S203. The cuvette was then placed in an ice bath to bring the solution to 4° C. and 0.1 ml of a 2 g/dl HbS solution (13, 14) was added through the plastic diaphragm with a Hamilton air-tight syringe. The temperature of the solution in the cuvette was raised by placing it in a 30° C. bath and then into a spectrophotometer in which the increase in turbidity was measured with time at 700 nm. […] The latter was extracted with phosphate buffer from tablets of Valtrex (Glaxo Wellcome).

[2] = test system: HbS erythrocytes; test: Inhibition of sickling of intact erythrocytes at low oxygen tension; type: cell-based, human; conditions: for sickling of deoxygenated erythrocytes: microscope, formalin-fixed
Procedure: The procedure used was essentially that of Cerami and Manning (15). The source of the red cells was human blood in which HbS represented essentially 100% of the total hemoglobin as determined by electrophoresis on a cellulose acetate membrane in a Supre-Heme® Tris-EDTA-boric acid buffer (Helena Laboratories, Beaumont, Tex.).
Ten microliters of blood was diluted to 5 ml with PBS and 1 ml aliquots were distributed into the same type of cuvettes used to study hemoglobin S aggregation (see above). Two #25 hypodermic needles were inserted into each plastic diaphragm and nitrogen was passed over the surface of the erythrocyte suspension for 15 minutes with periodic gentle shaking. The hypodermic needles were removed and the sealed cuvettes were left for 2 hours at room temperature. The control cuvette was treated identically except that the cap was loosened for the 2 hour period.
Then 250 μl of 10% buffered formalin (Metpath) was added to the cell suspensions, which were allowed to stand at room temperature for 15 minutes. The cell suspensions were then sedimented by centrifugation, suspended in 100 μl of PBS and examined under the microscope.

[3] = biological target: human hemoglobin (Homo sapiens, UniProt P68871+P69905); conditions: personal communication; cited from earlier work
[4] = test system: HbS erythrocytes; conditions: literature (15, 16); cited from earlier work

| Structure (SMILES) | in vitro aggregation of HbS [1] | sickling of deoxygenated erythrocytes ([2]; 0.2 mg/ml) | sickling of deoxygenated erythrocytes ([2]; 0.3 mg/ml) | sickling of deoxygenated erythrocytes ([2]; 0.4 mg/ml) | proportion of sickling cells ([2]; lowest concentration (FIG. 2B, 0.2 mg/ml)) | change in Hill coefficient [3] | change in oxygen affinity [3] | concentration used to inhibit sickling [4] | concentration relative to the effective concentration of acyclovir ([2]; KCNO 2.4 mg/ml versus acyclovir (FIG. 2)) |
| --- | --- | --- | --- | --- | --- | --- | --- | --- | --- |
| Nc1nc2c(ncn2COCCO)c(=O)[nH]1 [acyclovir, 2-amino-1,9-dihydro-9-[(2-hydroxyethoxy)methyl]-6H-purin-6-one] | inhibiting | Minimal sickling | Minimal sickling | essentially no sickling | below 60% | no significant change | no significant change |  |  |
| N#C[O-].[K+] [KCNO] |  |  |  |  |  |  |  | 2.4 mg/mL | more than 10 × |
| CC(C)[C@H](N)C(=O)OCCOCn1cnc2c(=O)[nH]c(N)nc21 [valacyclovir, L-valine, 2-[(2-amino-1,6-dihydro-6-oxo-9H-purin-9-yl)methoxy]ethyl ester] | inhibiting |  |  |  |  |  |  |  |  |
